# Measurements as given in patent publication US12540171B2, “Compositions and methods for treating ocular disease” (Asclepix Therapeutics, Inc., priority 2019, dated 2026).
# No end group written: not given here.
# Key:
# [1] = Drug levels in the retina after intravitreal injection, LC/MS/MS; assay type: in vivo, Dutch-Belted rabbits; conditions: 225, 271, and 315 days after a single injection
# Procedure: The rabbits were then sacrificed at various time points, and the various ocular tissues were separated. The drug levels in the retina were measured by Liquid chromatography-mass spectrometry (LC/MS/MS). The drug levels were plotted as ng/g. The Kd for binding of AXT107 to its integrin targets is 1-2 nM.
# [2] = Gel formation and persistence in the vitreous after intravitreal injection
# Procedure: In FIG. 3, AXT107 was injected into the vitreous of Dutch-Belted rabbits. […] The retina with the optic nerve is visible in the back of the eye.
# In FIG. 7, AXT107 was injected into the vitreous of Dutch-Belted rabbits in a PK toxicology study.
sequence,measurement,setting,value
LRRFSTAPFAFIDINDVINF [AXT107],AXT107 level in the retina,[1],significant levels
same,"gels in the vitreous at necropsy, PK toxicology study","[2]; Dutch-Belted rabbits, 6 Months after administration, all doses",visible in the vitreous at all doses
same,effect of gel on the visual axis,"[2]; rabbit eye, after intravitreal injection",does not block the visual axis
same,time the gel stays in place without breaking apart or migrating,"[2]; rabbit eye, doses of 100 μg, 250 μg, 500 μg, and 1000 μg",15 months
same,release of peptide from gel,[2]; rabbit vitreous,released the peptide in a sustained manner
